Data on two molecules can be found in patent US12358913B2, “Crystal of diarylthiohydantoin compound” (CHIA TAI TIANQING PHARMACEUTICAL GROUP CO., LTD., priority 2019, dated 2025).

Data set [1] in a line: Pharmacokinetic test in male CD-1 mice, plasma by LC/MS/MS. The class given is in vivo. The note with it: mouse, po, intragastric administration, 2 mg/kg. Here is the method: Taking male CD-1 mice as test animals, the drug concentrations in the plasma of the mice at different time points after intravenous and intragastric administration of the compound of formula I were determined by an LC/MS/MS method. This example aims to investigate the pharmacokinetic performance of the compound of formula I in mice and to evaluate the pharmacokinetic characteristics.
2.2 Test Animals: 4 Healthy Adult Male CD-1 Mice, which were Divided into 2 Groups (2 Mice in Each Group) According to the Body Weight. Animals were Purchased from Shanghai Sippe-Bk Lab Animal Co., Ltd., and Animal Production License Number was SCXK (Shanghai) 2013-0016. 2.3 Drug Preparation
An appropriate amount of sample was weighed, and sequentially added with an appropriate amount of DMSO, PEG400 and water according to the volume ratio of 10:40:50, and the mixture was stirred and ultrasonicated to a clear state (0.4 mg/mL) for intravenous administration. […]
LC/MS/MS method was used to determine the content of the test compound in the plasma of mice after intravenous and intragastric administration. The linear range of the method was 2.00-6000 nmol/L; plasma samples were analyzed after treatment with acetonitrile to precipitate proteins.

A short description of data set [2]: Tissue distribution test (plasma and brain) in male CD-1 mice. The class given is in vivo. The following applies: intragastric administration, 2 mg/kg, 4 h. Here is the method: Taking male CD-1 mice as test animals, the drug concentrations in the plasma and brain of the mice after intragastric administration of the compound of formula I were determined by an LC/MS/MS method.
2.2 Test Animals: 2 Healthy Adult Male CD-1 Mice. Animals were Purchased from Shanghai Sippe-Bk Lab Animal Co., Ltd.
An appropriate amount of sample was added into 0.5% CMC/0.2% Tween aqueous solution, and the mixture was stirred and ultrasonicated to a suspension state (0.4 mg/mL).
Two male CD-1 mice, after fasting overnight, were subjected to intragastric administration at a volume of 5 mL/kg and a dosage of 2 mg/kg.
Male CD-1 mice, after intragastric administration of the compound of formula I, were subjected to 100 μL of blood collection by cardiac puncture at 4 h, and the blood was placed in tubes containing 2 μL of EDTA-K2 and centrifuged at 3000 g for 15 min to separate out 30 μL of plasma, which was stored at −60° C. Meanwhile, brain tissues were collected, washed, homogenized with 9-fold 15 mM PBS/MeOH (v: v, 2:1), and stored at −60° C. The animals were allowed to eat 4 h after administration.
LC/MS/MS method was used to determine the content of test compound in the plasma and brain of mice after intragastric administration. The linear range of the method was 2.00-6000 nmol/L; plasma samples were analyzed after treatment with acetonitrile to precipitate proteins.

For data set [3], the system named is human prostate cancer LNCaP-FGC cells. In words: In vivo pharmacodynamic study on subcutaneous xenograft tumor model of human prostate cancer LNCaP-FGC cells. Also noted: species or system CB-17 SCID mouse. The following applies: for Relative tumor proliferation rate T/C / TGI: after 21 days of administration. On the procedure:
Human prostate cancer LNCaP-FGC cells (ATCC, Manassas, VA) were cultured in vitro, in a monolayer way, in an RPMI1640 medium containing 10% fetal bovine serum at 37° C. and 5% CO2. Routine digestion treatment with pancreatin-EDTA was performed twice a week for passage. When the saturation degree of the cells is 80-90%, the cells were collected, counted and inoculated.
0.2 mL (10×10^6) of LNCaP-FGC cells (10×10^6+Matrigel, 1:1) were inoculated subcutaneously into the right back of each CB-17 SCID mouse. The mice were divided into groups for administration when the mean tumor volume reached 100-150 mm^3.
Tumor diameters were measured twice weekly using a vernier caliper. The calculation formula for tumor volume was: V=0.5a×b^2, with a and b representing the long and short diameters of the tumor, respectively. The anti-tumor therapeutic effect of the compound was evaluated by TGI (%) or relative tumor proliferation rate T/C (%). TGI (%)=[(1−(average tumor volume of a treatment group at the end of administration−average tumor volume of the treatment group at the start of administration))/(average tumor volume of a vehicle control group at the end of treatment-average tumor volume of the vehicle control group at the start of treatment)]×100%. The calculation formula for relative tumor proliferation rate T/C (%) was as follows: T/C %=TRTV/CRTV×100% (TRTV: RTV of treatment group; CRTV: RTV of negative control group). Relative tumor volume (RTV) was calculated based on the results of tumor measurement. The calculation formula was: RTV=Vt/V0, wherein V0 was the average tumor volume measured at the time of grouping and administration (i.e., d0), Vt was the average tumor volume at a certain measurement, and the data of TRTV and CRTV were obtained on the same day.
Statistical analysis included mean and standard error of mean (SEM) of tumor volume at each time point for each group. […] Comparison between two groups was analyzed using T-test, comparison among three or more groups was analyzed using one-way ANOVA. […] If there was […] in F values, Dunnet (2-sided) method was used for analysis. All data analysis was performed with SPSS 17.0. “P<0.05” was defined as a significant difference.

Data set [4] in a line: Hygroscopicity by dynamic vapor sorption (DVS). The class given is physicochemical. The note with it: 25±1° C. and 80±2% RH. Here is the method:
Instrument model: SMS DVS Advantage
Test conditions: a sample (10-15 mg) of the crystal of the compound of formula I prepared in Example 2 was placed in a DVS sample tray for testing.
The detailed DVS parameters were as follows:
Balancing: dm/dt=0.01%/min (shortest: 10 min, longest: 180 min)
Drying: drying at 0% RH for 120 min
RH (%) test gradient: 10%
Range of RH (%) test gradient: 0%-90%-0%
Note: ΔW % represents the moisture gain of the test compound at 25±1° C. and 80±2% RH.

Data set [5] can be described thus: Solid stability of the crystal, purity by HPLC. It counts as physicochemical. An excerpt:
References were made to the requirements in the “Guidelines for the Stability Test of APIs and Preparations” (Appendix XIX C of the Volume Two of the Chinese Pharmacopoeia, 2010 Edition) for the conditions and the method for the stability test of the crystal, and the stability of the crystalline solid under conditions of different influence factors was studied with the crystal prepared in Example 2 as a test sample.
High performance liquid chromatography (HPLC): column: Waters xbridge shiled RP18 (150 mm*4.6 mm, 3.5 μm); PN: 186003045; wavelength: 228 nm; mobile phase A: pH 4.5, 5 mmol/L sodium acetate buffer solution (pH adjusted with phosphoric acid); mobile phase B: acetonitrile; elution mode: gradient elution.

“And” between values parts separate entries of the source, which are not always exact repeats. Identical values can stand only once.

As for `CCc1cc(=O)n2cc(N3C(=S)N(c4ccc(C#N)c(Cl)c4)C(=O)C3(C)C)cc(F)c2n1` [Compound of formula I, 2-chloro-4-(3-(2-ethyl-9-fluoro-4-oxo-4H-pyrido[1,2-a]pyrimidin-7-yl)-4,4-dimethyl-5-oxo-2-thioimidazolidin-1-yl)benzonitrile], in data set [1], the bioavailability was 68.1%. Also, in data set [2], the Brain-to-plasma concentration ratio is 0.0322, the Concentration in brain was determined as 265 nmol/kg and the Concentration in plasma turned out to be 8.26 µM. In data set [3] (10 mg/kg PO QD), the “Relative tumor proliferation rate T/C” value is 43.93% and the TGI is given as 62.75%. Also, the “Tolerance of the animals to the test compound” value in data set [3] (10 mg/kg and 20 mg/kg PO QD × 21 days) was “good tolerance”. In data set [3] (20 mg/kg PO QD), the “Relative tumor proliferation rate T/C” value came to 32.37% and the TGI turned out to be 76.16%.

Consider `CCc1cc(=O)n2cc(N3C(=S)N(c4ccc(C#N)c(Cl)c4)C(=O)C3(C)C)cc(F)c2n1` [crystal of the compound of formula I, 2-chloro-4-(3-(2-ethyl-9-fluoro-4-oxo-4H-pyrido[1,2-a]pyrimidin-7-yl)-4,4-dimethyl-5-oxo-2-thioimidazolidin-1-yl)benzonitrile], for which, in data set [4], the “ΔW % (moisture gain)” value is recorded as 1.018%. For the same molecule, the “Purity of the crystal (stability)” value in data set [5] (75% RH, 40° C., 1 month) came out at 99.17%; in data set [5] (75% RH, 40° C., 2 months) it was 99.14%; in data set [5] (75% RH, 40° C., 3 months) it was 99.16%; in data set [5] (75% RH, 40° C., 10 days), 99.15%; in data set [5] (75% RH, 60° C., 1 day), 99.14%; in data set [5] (75% RH, 60° C., 10 days), 99.16%. For the same molecule, the “Purity of the crystal (stability)” value was 99.18% and 99.14% in data set [5] (92.5% RH, room temperature, 10 days); 99.17% in data set [5] (Initial test sample); 99.13% in data set [5] (wrapped with tin foil paper, exposed to visible light of 1200000 Lux and UV of 200 W at room temperature).
